Experiments:
[1] = test system: panel of demethylases of the JMJ family; assay: JMJ selectivity panel; conditions: other than JMJD3 and UTX
100 protein kinases = assay: kinase competition-binding assay; conditions: 30 μM
[2] = intracellular compound quantification in macrophage lysates; type: in vitro ADME, human
[3] = test system: panel of 60 unrelated proteins, including histone deacetylases; assay: off-target panel
[4] = biological target: Flag-tagged UTX from transiently transfected HEK-293 cells (Homo sapiens, UniProt O15550); assay: chemoproteomics affinity capture with immobilized GSK-J3, western blotting; type: binding; conditions: 100 μM free compound, HEK-293 lysate
[5] = ChIP analysis at the TNFA locus in LPS-stimulated macrophages; type: cell-based, human
[6] = test system: macrophages derived from patients with rheumatoid arthritis; assay: TNF-α production by macrophages derived from patients with rheumatoid arthritis; type: cell-based, human
[7] = test system: Flag-JMJD3-transfected HeLa cells; assay: nuclear H3K27me3 immunostaining; type: cell-based
[8] = TNF-α production by LPS-activated macrophages; type: cell-based, human
[9] = cytokine expression by PCR array in LPS-activated macrophages; type: cell-based, human; conditions: 30 μM, LPS 2 h, n = 4 donors

Flag-tagged UTX from transiently transfected HEK-293 cells, sequence (O15550 whole entry): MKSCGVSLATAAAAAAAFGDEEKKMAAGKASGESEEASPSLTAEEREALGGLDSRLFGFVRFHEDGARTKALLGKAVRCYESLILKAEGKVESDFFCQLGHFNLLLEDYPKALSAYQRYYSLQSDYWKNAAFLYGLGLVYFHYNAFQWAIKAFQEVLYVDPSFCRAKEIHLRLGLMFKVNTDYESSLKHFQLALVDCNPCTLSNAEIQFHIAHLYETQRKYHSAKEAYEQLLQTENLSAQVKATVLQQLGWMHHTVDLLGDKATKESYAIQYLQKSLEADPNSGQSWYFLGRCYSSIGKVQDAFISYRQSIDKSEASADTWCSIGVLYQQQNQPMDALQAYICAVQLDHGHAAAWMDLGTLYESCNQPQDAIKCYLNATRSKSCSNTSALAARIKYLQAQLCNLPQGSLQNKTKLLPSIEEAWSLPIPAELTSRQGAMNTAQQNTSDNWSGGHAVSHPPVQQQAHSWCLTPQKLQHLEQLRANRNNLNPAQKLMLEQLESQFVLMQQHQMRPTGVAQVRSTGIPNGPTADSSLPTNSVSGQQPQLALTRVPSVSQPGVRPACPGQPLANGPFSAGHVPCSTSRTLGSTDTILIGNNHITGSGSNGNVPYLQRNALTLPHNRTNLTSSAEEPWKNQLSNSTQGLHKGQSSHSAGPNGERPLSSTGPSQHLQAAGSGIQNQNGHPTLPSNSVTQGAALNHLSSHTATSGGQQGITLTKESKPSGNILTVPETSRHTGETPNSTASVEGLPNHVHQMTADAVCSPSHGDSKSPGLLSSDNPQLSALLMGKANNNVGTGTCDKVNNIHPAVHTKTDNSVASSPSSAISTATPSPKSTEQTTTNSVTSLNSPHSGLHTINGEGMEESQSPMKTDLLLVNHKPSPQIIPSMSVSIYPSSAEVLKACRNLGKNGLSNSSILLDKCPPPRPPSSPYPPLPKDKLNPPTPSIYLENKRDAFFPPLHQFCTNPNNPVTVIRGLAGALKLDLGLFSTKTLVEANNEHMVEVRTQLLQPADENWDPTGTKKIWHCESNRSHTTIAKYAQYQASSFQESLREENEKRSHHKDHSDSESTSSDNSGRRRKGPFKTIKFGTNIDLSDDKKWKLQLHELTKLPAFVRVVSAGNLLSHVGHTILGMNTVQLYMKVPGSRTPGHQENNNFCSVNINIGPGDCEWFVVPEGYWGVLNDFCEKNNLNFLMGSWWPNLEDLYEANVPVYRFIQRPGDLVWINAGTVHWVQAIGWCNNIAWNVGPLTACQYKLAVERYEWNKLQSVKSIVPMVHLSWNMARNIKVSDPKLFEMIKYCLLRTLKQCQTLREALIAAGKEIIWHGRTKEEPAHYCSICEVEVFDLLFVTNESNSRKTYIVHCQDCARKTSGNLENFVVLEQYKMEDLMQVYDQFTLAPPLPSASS

Row | SMILES | activity against a panel of demethylases of the JMJ family [1] | inhibition of 100 protein kinases (100 protein kinases) | cellular permeability [2] | off-target activity against a panel of 60 unrelated proteins [3] | competition of capture of Flag-tagged UTX by immobilized GSK-J3 [4] | H3K27 methylation upstream of the TNFA TSS [5] | LPS-induced loss of H3K27me3 associated with the TNFA TSS (ChIP) ([5]; 30 μM, LPS 1 h, n = 8 donors) | recruitment of RNA polymerase II to the TNFA TSS (ChIP) ([5]; 30 μM, LPS 1 h, n = 8 donors) | production of TNF-α by macrophages from patients with rheumatoid arthritis [6] | nuclear H3K27me3 staining in Flag-JMJD3-transfected HeLa cells ([7]; 25 μM) | total nuclear H3K27me3 levels in untransfected cells ([7]; untransfected cells) | hydrolysis by macrophage esterases [2] | levels of LPS-induced JMJD3 or of LPS-independent UTX and EZH2 [8] | TNF-α production after siRNA knockdown of either JMJD3 or UTX alone ([8]; 30 μM, LPS 1 h) | cellular toxicity ([8]; conditions of the TNF-α assay) | IC50 ([8]; read-out: IC50 for TNF-α blockade, LPS, 6 h, n = 5 donors) [µM] | LPS-driven cytokines with significantly reduced expression (PCR array) [9] | effect on TNF-α protein production ([8]; LPS, 6 h)
1 | O=C(O)CCNc1cc(N2CCc3ccccc3CC2)nc(-c2ccccn2)n1 [GSK-J1] | inactive | did not significantly inhibit | restricts cellular permeability | negligible off-target activity | competitively inhibited | – | – | – | – | – | – | – | – | – | – | – | – | –
2 | CCOC(=O)CCNc1cc(N2CCc3ccccc3CC2)nc(-c2ccccn2)n1 [GSK-J4] | – | – | – | – | – | Neither GSK-J4 nor GSK-J5 had an effect | prevented the LPS-induced loss of H3K27me3 | blocked the recruitment of RNA polymerase II | blocked the production of TNF-α | preserved nuclear H3K27me3 staining | increased total nuclear H3K27me3 levels | rapidly hydrolysed | neither GSK-J4 nor GSK-J5 directly affected | still able to inhibit TNF-α production | No interference from cellular toxicity was observed | 9 | 16 of 34 | –
3 | CCOC(=O)CCNc1cc(N2CCc3ccccc3CC2)nc(-c2cccnc2)n1 [GSK-J5] | – | – | – | – | – | Neither GSK-J4 nor GSK-J5 had an effect | – | – | – | – | – | rapidly hydrolysed | neither GSK-J4 nor GSK-J5 directly affected | – | – | – | – | no effect

Source: PMC4691848 (Nature, 2012)
